Laboratory results published in US12030905B2, “Steviol glycoside compounds, compositions for oral ingestion or use, and method for enhancing steviol glycoside solubility” (Cargill, Incorporated, priority 2014, dated 2024).

Experiments:
[1] = Instantaneous solubility in deionized water at room temperature; assay type: physicochemical; conditions: for instantaneous solubility: vigorously mixed with deionized water for 10 minutes at room temperature, clear solution without precipitates
Description: (§1) The composition can optionally be expressed in terms of the concentration of one or more steviol glycoside(s). Beneficially, it has been founds that compound(s) 1, 2, 3, and/or 4, can improve solubility of steviol glycosides in an aqueous solution, and therefore compositions can be prepared having a greater concentration of steviol glycosides in solution. As used herein “instantaneous solubility” refers to the solubility of a steviol glycoside, or mixture of steviol glycosides, that are vigorously mixed with deionized water at room temperature (25° C.). As used herein “equilibrium solubility” refers to the solubility of a steviol glycoside, or mixture of steviol glycosides, that are vigorously mixed with deionized water at 80° C. for 15 minutes, cooled to room temperature (25° C.), and then observed up to 4 days. Clear solutions without precipitates are considered soluble. Unless indicated otherwise herein, the term “solubility” refers to “equilibrium solubility.”
(§2) Instantaneous solubility is determined by mixing steviol glycoisde with deionized water vigorously for 10 minutes at room temperature. Equilibrium solubility is determined by heating deionized water with steviol glycoside at 80° C. for 15 minutes and cooling down to room temperature for observation up to 4 days. Clear solutions without precipitates are considered soluble.

[2] = Equilibrium solubility (heated at 80° C. for 15 minutes, cooled to room temperature, observed up to 4 days); assay type: physicochemical; conditions: for equilibrium solubility: deionized water, 80° C. for 15 minutes, cooled to room temperature, observed up to 4 days
Description: as §1, §2

[3] = taste, versus sucrose/sugar; cited from earlier work

instantaneous solubility [1] | instantaneous solubility ([1]; listed as rebaudioside D) | equilibrium solubility at 0.08% ([2]; RebD 0.08% in deionized water) | equilibrium solubility [2] [%] | instantaneous solubility at 0.10% ([1]; RebM 0.10% in deionized water) | instantaneous solubility at 0.13% ([1]; RebM 0.13% in deionized water) | instantaneous solubility ([1]; listed as rebaudioside M) | equilibrium solubility at 0.10% ([2]; RebM 0.10% in deionized water) | equilibrium solubility at 0.13% ([2]; RebM 0.13% in deionized water) | equilibrium solubility at 0.20% ([2]; RebM 0.20% in deionized water) | equilibrium solubility ([2]; listed as rebM) | equilibrium solubility ([2]; listed as rebaudioside M) | SMILES | times sweeter than sucrose [3]
< 0.08% | less than 0.08% | soluble | 0.08 | – | – | – | – | – | – | – | – | C=C1C[C@@]23CC[C@H]4[C@@](C)(CCC[C@@]4(C)C(=O)O[C@@H]4O[C@H](CO)[C@@H](O)[C@H](O)[C@H]4O[C@@H]4O[C@H](CO)[C@@H](O)[C@H](O)[C@H]4O)[C@@H]2CC[C@]1(O[C@@H]1O[C@H](CO)[C@@H](O)[C@H](O[C@@H]2O[C@H](CO)[C@@H](O)[C@H](O)[C@H]2O)[C@H]1O[C@@H]1O[C@H](CO)[C@@H](O)[C@H](O)[C@H]1O)C3 [RebD, rebaudioside D] | 200-220 times
at least 0.13% | – | – | – | soluble | soluble | about 0.13% | soluble | soluble | soluble | at least 0.2% | about 0.2% | C=C1C[C@@]23CC[C@H]4[C@@](C)(CCC[C@@]4(C)C(=O)O[C@@H]4O[C@H](CO)[C@@H](O)[C@H](O[C@@H]5O[C@H](CO)[C@@H](O)[C@H](O)[C@H]5O)[C@H]4O[C@@H]4O[C@H](CO)[C@@H](O)[C@H](O)[C@H]4O)[C@@H]2CC[C@]1(O[C@@H]1O[C@H](CO)[C@@H](O)[C@H](O[C@@H]2O[C@H](CO)[C@@H](O)[C@H](O)[C@H]2O)[C@H]1O[C@@H]1O[C@H](CO)[C@@H](O)[C@H](O)[C@H]1O)C3 [RebM, rebaudioside M] | –
